In paper PMC2812908 (Letters in drug design & discovery, 2009):
pKi: −log10 of the molar value.

Target: Aβ(1–40) fibrils (Homo sapiens, UniProt P05067)
Experiment: radioligand displacement of [3H]Chrysamine-G, filtration assay
Assay type: binding

Chain of Aβ(1–40) fibrils (P05067 672-711): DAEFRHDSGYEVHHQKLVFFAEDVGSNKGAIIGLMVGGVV

Row | SMILES | pKi
1 | COc1cc(/C=C/c2ccc(/C=C/c3ccc(O)c(O)c3)cc2)ccc1O [X:034-3-OMe1, (E,E)-1-(3’,4’-dihydroxystyryl)-4-(3’-methoxy-4’hydroxystyryl)benzene] | 7.68
2 | O=C(O)c1cc(/C=C/C=C/c2ccc(/C=C/C=C/c3ccc(O)c(C(=O)O)c3)cc2)ccc1O [X:EE:B34, 1,4-bis[(1E,3E)-4-(3’-carboxy-4’-hydroxyphenyl)-1,3-butadienyl]-benzene] | 9.89
